Reference: PubChem BioAssay (NCI)
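Cultured in 96-well plates, cells were exposed to test compound for 48 hours across five concentrations. TGI is the concentration that stops growth completely.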

How the values were obtained:
Experiment in all cases: NCI anticancer screen, dose series, 48 h
BT-549 breast = tested on: BT-549 breast
CAKI-1 renal = tested on: CAKI-1 renal
CCRF-CEM leukemia = tested on: CCRF-CEM leukemia
COLO 205 colon = tested on: COLO 205 colon
DU-145 prostate = tested on: DU-145 prostate
K-562 leukemia = tested on: K-562 leukemia
M14 melanoma = tested on: M14 melanoma
MCF7 breast = tested on: MCF7 breast
MOLT-4 leukemia = tested on: MOLT-4 leukemia
NCI-H226 lung = tested on: NCI-H226 lung
NCI-H23 lung = tested on: NCI-H23 lung
NCI/ADR-RES ovarian = tested on: NCI/ADR-RES ovarian
OVCAR-3 ovarian = tested on: OVCAR-3 ovarian
OVCAR-4 ovarian = tested on: OVCAR-4 ovarian
OVCAR-8 ovarian = tested on: OVCAR-8 ovarian
SK-MEL-2 melanoma = tested on: SK-MEL-2 melanoma
SK-MEL-5 melanoma = tested on: SK-MEL-5 melanoma
SN12C renal = tested on: SN12C renal
TK-10 renal = tested on: TK-10 renal

Row | SMILES | TGI (BT-549 breast) | TGI (CAKI-1 renal) | TGI (CCRF-CEM leukemia) | TGI (COLO 205 colon) | TGI (DU-145 prostate) | TGI (K-562 leukemia) | TGI (M14 melanoma) | TGI (MCF7 breast) | TGI (MOLT-4 leukemia) | TGI (NCI-H226 lung) | TGI (NCI-H23 lung) | TGI (NCI/ADR-RES ovarian) | TGI (OVCAR-3 ovarian) | TGI (OVCAR-4 ovarian) | TGI (OVCAR-8 ovarian) | TGI (SK-MEL-2 melanoma) | TGI (SK-MEL-5 melanoma) | TGI (SN12C renal) | TGI (TK-10 renal)
1 | Cc1nc2c(o1)C(=O)c1ccccc1C2=Nc1ccc(N2CCOCC2)cc1 | 5.73 µM | 42.7 µM | > 36.8 µM | 55.5 µM | 7.81 µM | 11.6 µM | 3.27 µM | 7.9 µM | 31.5 µM | 42.1 µM | 7.62 µM | > 29.6 µM | 5.12 µM | 12.4 µM | > 27.7 µM | 9.63 µM | 3.2 µM | 10.2 µM | 99.1 µM
2 | CN(C)CCCCN1c2ccccc2Sc2ccc(C(=O)c3ccccc3)cc21 | 18.8 µM | 5.32 µM | 6.61 µM | 3.13 µM | 10.7 µM | 3.36 µM | 3.25 µM | 3.05 µM | 6.31 µM | 22.8 µM | 34.2 µM | 11.1 µM | 9.88 µM | 10.8 µM | 7.91 µM | 6.59 µM | 3.42 µM | 9.84 µM | 8.42 µM
3 | O=C1C(Cl)C(c2cc3cc(Br)ccc3nc2Cl)N1c1ccc(Cl)cc1 (centres undefined) | 11.6 µM | 9.3 µM | 11.4 µM | 10.2 µM | 19.7 µM | 19.8 µM | 20.9 µM | 7.47 µM | 10.6 µM | 12.3 µM | 17.2 µM | 16.7 µM | 13.8 µM | 9.4 µM | > 25 µM | 10.4 µM | 6.38 µM | 8.8 µM | 13.3 µM
4 | NS(=O)(=O)c1ccc(Nc2c3ccccc3nc3c(C(=O)NCCO)cccc23)cc1 | 0.311 µM | 0.546 µM | > 1 µM | 0.206 µM | 0.586 µM | 0.887 µM | 0.326 µM | 0.176 µM | 0.0604 µM | 0.296 µM | 0.293 µM | > 1 µM | 0.318 µM | 0.454 µM | 0.902 µM | 0.334 µM | 0.221 µM | 0.557 µM | 0.726 µM
5 | Cc1ccc(C(=O)OCC(C)C)cc1N=NN(C)C | > 100 µM | > 100 µM | > 100 µM | > 100 µM | > 100 µM | > 100 µM | > 100 µM | > 100 µM | > 100 µM | > 100 µM | > 100 µM | > 100 µM | 90.6 µM | > 100 µM | > 100 µM | > 100 µM | > 100 µM | > 100 µM | > 100 µM
6 | Cc1ccc2c(=O)cc(-c3ccsc3)[nH]c2n1 | > 100 µM | > 100 µM | > 83 µM | 12.8 µM | > 89.8 µM | > 100 µM | > 58.1 µM | > 100 µM | > 30.7 µM | 56.8 µM | > 25.2 µM | > 20.5 µM | > 100 µM | > 100 µM | > 100 µM | > 30.6 µM | > 28.5 µM | > 86.2 µM | > 100 µM
7 | Nc1ncnc2c1ncn2[C@H]1CC[C@@H](NO)C1 | > 100 µM | > 100 µM | > 100 µM | > 100 µM | > 100 µM | > 100 µM | > 100 µM | > 100 µM | > 100 µM | > 100 µM | > 100 µM | > 100 µM | > 100 µM | > 100 µM | > 100 µM | > 100 µM | > 100 µM | > 100 µM | > 100 µM
8 | O=c1c2cc([N+](=O)[O-])ccc2nc2n1CCCCC2 | > 100 µM | > 100 µM | > 100 µM | > 100 µM | > 100 µM | > 100 µM | > 100 µM | > 100 µM | > 100 µM | > 100 µM | > 100 µM | > 100 µM | > 100 µM | > 100 µM | > 100 µM | > 100 µM | > 100 µM | > 100 µM | > 100 µM
9 | COC(=O)/C=C\C(C#N)(C#N)N=Cc1ccc(Br)s1 | 16.8 µM | 5.94 µM | 5.5 µM | 6.02 µM | 24.5 µM | > 100 µM | 8.86 µM | 6.1 µM | > 100 µM | 12.4 µM | 46.9 µM | 45.2 µM | 23.3 µM | 16.3 µM | 19.1 µM | 33.2 µM | 27.4 µM | 35.1 µM | 6.65 µM
10 | CN1CCN(CCCCN2c3ccccc3Sc3cc(N=[N+]=[N-])ccc32)CC1 | 21.9 µM | 5.32 µM | 4.66 µM | 3.25 µM | 15.1 µM | 3.04 µM | 3.28 µM | 3.63 µM | 4.12 µM | 12.6 µM | 18.7 µM | 7.86 µM | 6.53 µM | 7.5 µM | 3.85 µM | 5.04 µM | 3.04 µM | 6.46 µM | 3.43 µM
11 | CC(=O)OCC(OC(C)=O)C(OC(C)=O)C(OC(C)=O)C(C=NN(C(C)=O)S(=O)(=O)c1ccc(/C=C2\NC(=O)NC2=O)cc1)OC(C)=O (centres undefined) | > 100 µM | > 100 µM | > 100 µM | > 100 µM | > 100 µM | > 100 µM | > 100 µM | > 100 µM | > 100 µM | > 100 µM | > 100 µM | > 100 µM | > 100 µM | > 100 µM | > 100 µM | > 100 µM | > 100 µM | > 100 µM | > 100 µM
